The values that follow come from patent US7807690B2, “2,3-dihydro-iminoisoindole derivatives” (Eisai R&D Management Co., Ltd., priority 2007, dated 2010).

Structures can show the parent of a compound that is named as a salt.

T1 sequence (P08709 213-466 limits assumed): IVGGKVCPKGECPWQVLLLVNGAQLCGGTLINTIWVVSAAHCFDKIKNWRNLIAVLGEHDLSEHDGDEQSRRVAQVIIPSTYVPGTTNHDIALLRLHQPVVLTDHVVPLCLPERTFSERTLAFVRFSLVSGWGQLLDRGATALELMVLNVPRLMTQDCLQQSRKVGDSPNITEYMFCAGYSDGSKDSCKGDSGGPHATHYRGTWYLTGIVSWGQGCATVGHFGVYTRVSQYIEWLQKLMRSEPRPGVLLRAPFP
T1 sequence (P08709 61-212 limits assumed): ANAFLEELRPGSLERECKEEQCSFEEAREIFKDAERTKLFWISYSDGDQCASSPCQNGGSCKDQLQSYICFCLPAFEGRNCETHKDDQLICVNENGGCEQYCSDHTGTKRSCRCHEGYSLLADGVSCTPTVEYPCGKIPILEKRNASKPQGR
T1 sequence (P13726 33-295 partner): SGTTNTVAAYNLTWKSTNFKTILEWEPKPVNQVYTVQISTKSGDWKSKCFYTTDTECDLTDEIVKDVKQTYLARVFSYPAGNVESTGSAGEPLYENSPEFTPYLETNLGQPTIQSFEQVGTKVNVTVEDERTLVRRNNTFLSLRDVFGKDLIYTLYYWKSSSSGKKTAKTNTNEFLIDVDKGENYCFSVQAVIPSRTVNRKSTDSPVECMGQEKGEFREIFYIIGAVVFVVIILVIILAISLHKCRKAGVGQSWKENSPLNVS

The experiment has as its target T1, human clotting factor VIIa (Homo sapiens, UniProt P08709).
T1 construct: a human clotting factor VIIa (hereinafter, “Factor VIIa”) purified sample; purchased Enzyme Research Laboratories HFVIIa
The experiment in a line: Inhibiting activity against clotting factor VIIa (chromogenic substrate Spectrozyme FVIIa, TF/Factor VIIa enzyme solution). Format: biochemical. To be noted: 10 nmol/L human TF, 5 nmol/L Factor VIIa, room temperature 40 minutes, 405 nm. The protocol: A dimethyl sulfoxide (DMSO) solution was prepared with an invention compound concentration of 10 mmol/L (10 mmol/L compound solution).
One packet of tris-hydroxymethylaminomethane-preset (hereinafter referred to as “Tris preset”)(Product of Sigma Corp., Catalog No. T8293), 8.8 g of sodium chloride (NaCl) and 1 g of bovine serum albumin (hereinafter abbreviated as “BSA”) were dissolved in 1 L of water to prepare a Tris-BSA buffer (100 mmol/L Tris, 0.15 mol/L NaCl, 0.1% BSA, pH 7.4).
The Tris-BSA buffering solution (180 μL) was added to the aforementioned 10 mmol/L compound solution (20 μL). The mixture was provided for a 10-fold dilution series using the aforementioned Tris-BSA buffering solution to prepare solutions with compound concentrations of 1.0 mmol/L, 100, 10, 1, 0.1, 0.01 and 0.001 μmol/L (1.0 mmol-0.001 μmol/L compound solutions).
As a control, a solution was prepared by 10-fold dilution of DMSO with the Tris-BSA buffer (hereinafter referred to as “control 10% solution”).
After dissolving one pack of Tris-Preset, NaCl (8.8 g) and BSA (1 g) in water (approximately 900 mL), a 1 mol/L calcium chloride (CaCl2) aqueous solution (15 mL) and a 1 mg/mL Cephalin aqueous solution (30 mL) were added, and water was added to a total volume of 1 L. To this solution there was added a human tissue factor (hereinafter, “TF”) sample (product of Calbiochem, Catalog No. 612151)(450 μg) to a TF sample concentration of 10 nmol/L, and then a human clotting factor VIIa (hereinafter, “Factor VIIa”) purified sample (product of Enzyme Research Laboratories, Catalog No. HFVIIa)(250 μg) was added to a Factor VIIa purified sample concentration of 5 nmol/L, to prepare an enzyme solution (100 mmol/L Tris-HCl, 0.15 mol/L NaCl, 15 mmol/L CaCl2, 30 μg/mL Cephalin, 1 mg/mL BSA, 10 nmol/L TF, 5 nmol/L Factor VIIa).
To 110 μL of this enzyme solution there was added 15 μL of each of the 1.0-mmol-0.001 μmol/L compound solutions, and then 25 μL of a 1.0 mmol/L synthetic chromogenic substrate solution (Spectrozyme FVIIa, product of American Diagnostica, Catalog No. 217L) was added and the mixture was allowed to stand at room temperature for 40 minutes. The amount of 4-nitroanilide released into the solution was quantified by spectrophotometry (405 nm).
A control […] was used in place of the compound solution for measurement in the same manner as a control.
The enzyme reaction inhibition was determined based on this measurement in the presence of the compounds of the invention from 100 μmol/L to 0.1 nmol/L. The IC50 value of each compound as an index of inhibiting activity against clotting factor VIIa was calculated based on nonlinear regression analysis of the enzyme reaction inhibition at each compound concentration.
For the molecule `COc1cc(OCCO)c(F)c(C(Nc2ccc3c(c2)CNC3=N)c2nn(-c3ncoc3C(=O)O)c(=O)[nH]2)c1` (centres unmarked) [Example 11, 4-(3-{[2-Fluoro-3-(2-hydroxyethoxy)-5-methoxyphenyl]-(1-imino-2,3-dihydro-1H-isoindol-5-ylamino)methyl}-5-oxo-4,5-dihydro-[1,2,4]triazol-1-yl)oxazole-5-carboxylic acid], half-maximal inhibition (IC50) was put at 242 nM. In the case of `COc1cc(OC)c(F)c(C(Nc2ccc3c(c2)CNC3=N)c2nn(-c3ccccc3[N+](=O)[O-])c(=O)[nH]2)c1` (centres unmarked) [Example 14, 5-[(2-Fluoro-3,5-dimethoxyphenyl)-(1-imino-2,3-dihydro-1H-isoindol-5-ylamino)methyl]-2-(2-nitrophenyl)-2,4-dihydro-[1,2,4]triazol-3-one trifluoroacetate], the IC50 came to 13 nM. With `COc1cc(C(Nc2ccc3c(c2)CNC3=N)c2nn(-c3ncccn3)c(=O)[nH]2)cc2c1OCOC2` (single isomer, unassigned) [Example 5] the figure was 20 nM.

In the case of `COc1cc(C(Nc2ccc3c(c2)CNC3=N)c2nn(-c3ccsc3C(=O)O)c(=O)[nH]2)cc2c1OCOC2` (single isomer, unassigned) [Example 7], the IC50 was determined as 3 nM. The molecule `COc1cc(F)c(C(Nc2ccc3c(c2)CNC3=N)c2nn(-c3cccc[n+]3[O-])c(=O)[nH]2)cc1OC` (centres unmarked) [Example 12, 5-[(2-Fluoro-4,5-dimethoxyphenyl)-(1-imino-2,3-dihydro-1H-isoindol-5-ylamino)methyl]-2-(1-oxypyridin-2-yl)-2,4-dihydro-[1,2,4]triazol-3-one] came in with an IC50 of 163 nM. With `COc1cc(C(Nc2ccc3c(c2)CNC3=N)c2nn(-c3ncsc3C(=O)O)c(=O)[nH]2)c(F)c2c1OCCC2` (single isomer, unassigned) [Example 1] the figure was 38 nM; with `CCc1cc(OCCN(C)C)c(F)c(C(Nc2ccc3c(c2)CNC3=N)c2nn(-c3ncccn3)c(=O)[nH]2)c1` (centres unmarked) [Example 3, 5-{[3-(2-Dimethylaminoethoxy)-5-ethyl-2-fluorophenyl]-(1-imino-2,3-dihydro-1H-isoindol-5-ylamino)methyl}-2-pyrimidin-2-yl-2,4-dihydro-[1,2,4]triazol-3-one Bistrifluoroacetate], 25 nM.

Take `COc1cc(C(Nc2ccc3c(c2)CNC3=N)c2nn(-c3ncccc3N)c(=O)[nH]2)cc2c1OCOC2` (single isomer, unassigned) [Example 2, acetate]: half-maximal inhibition (IC50) was put at 13 nM. This IC50 lies about 1.9-fold lower than the previous one.

For the molecule `CCc1cc(OCCO)c(F)c(C(Nc2ccc3c(c2)CNC3=N)c2nn(-c3ncccn3)c(=O)[nH]2)c1` (centres unmarked) [Example 4, 5-{[5-Ethyl-2-fluoro-3-(2-hydroxyethoxy)phenyl]-(1-imino-2,3-dihydro-1H-isoindol-5-ylamino)methyl}-2-pyrimidin-2-yl-2,4-dihydro-[1,2,4]triazol-3-one], the half-maximal inhibitory concentration (IC50) was 14 nM. As for `CCc1cc(OCCO)c(F)c(C(Nc2ccc3c(c2)CNC3=N)c2nn(-c3ncccc3N)c(=O)[nH]2)c1` (single isomer, unassigned) [Example 16, Acetate], half-maximal inhibition (IC50) was put at 3 nM. The molecule `COc1cc(F)c(C(Nc2ccc3c(c2)CNC3=N)c2nn(-c3ccccc3N)c(=O)[nH]2)cc1OC` (single isomer, unassigned) [Example 10, acetate] registered an IC50 of 12 nM. In turn, `COc1cc(F)c(C(Nc2ccc3c(c2)CNC3=N)c2nn(-c3n[nH]cc3C(=O)O)c(=O)[nH]2)cc1OC` (centres unmarked) [Example 15, 3-{3-[(2-Fluoro-4,5-dimethoxyphenyl)-(1-imino-2,3-dihydro-1H-isoindol-5-ylamino)methyl]-5-oxo-4,5-dihydro-[1,2,4]triazol-1-yl}-1H-pyrazole-4-carboxylic Acid] returned an IC50 of 207 nM. The same measure for `COc1cc(F)c(C(Nc2ccc3c(c2)CNC3=N)c2nn(-c3nc[nH]c3C(=O)O)c(=O)[nH]2)cc1OC` (centres unmarked) [Example 9, 5-{3-[(2-Fluoro-4,5-dimethoxyphenyl)-(1-imino-2,3-dihydro-1H-isoindol-5-ylamino)methyl]-5-oxo-4,5-dihydro-[1,2,4]triazol-1-yl}-3H-imidazole-4-carboxylic Acid]: 42 nM; for `COc1cc(OCCO)c(F)c(C(Nc2ccc3c(c2)CNC3=N)c2nn(-c3ncsc3C(=O)O)c(=O)[nH]2)c1` (centres unmarked) [Example 6, 4-(3-{[2-Fluoro-3-(2-hydroxyethoxy)-5-methoxyphenyl]-(1-imino-2,3-dihydro-1H-isoindol-5-ylamino)methyl}-5-oxo-4,5-dihydro-[1,2,4]triazol-1-yl)thiazole-5-carboxylic Acid]: 123 nM; for `COc1cc(F)c(C(Nc2ccc3c(c2)CNC3=N)c2nn(-c3ccccc3C(=O)O)c(=O)[nH]2)cc1OC` (centres unmarked) [Example 13, 2-{3-[(2-Fluoro-4,5-dimethoxyphenyl)-(1-imino-2,3-dihydro-1H-isoindol-5-ylamino)methyl]-5-oxo-4,5-dihydro-[1,2,4]triazol-1-yl}benzoic Acid Trifluoroacetate]: 4 nM.

Molecule `CCc1cc(OCCN(C)C)c(F)c(C(Nc2ccc3c(c2)CNC3=N)c2nn(-c3ccccc3N)c(=O)[nH]2)c1` (centres unmarked) [Example 8, 2-(2-Aminophenyl)-5-{[3-(2-dimethylaminoethoxy)-5-ethyl-2-fluorophenyl]-(1-imino-2,3-dihydro-1H-isoindol-5-ylamino)methyl}-2,4-dihydro-[1,2,4]triazol-3-one bistrifluoroacetate] came in with an IC50 of 15 nM. Molecule `CCc1cc(OCCO)c(F)c(C(Nc2ccc3c(c2)CNC3=N)c2nn(-c3ccsc3C(=O)O)c(=O)[nH]2)c1` (single isomer, unassigned) [Example 17] showed an IC50 of 2 nM.

In general, IC50 refers to the midpoint of a concentration-inhibition curve. A high value points to weaker potency in that assay.
